Source: the NIST ThermoML archive (doi:10.1021/je900333c)

Assay: relative permittivity at zero frequency (dimensionless); mn = molality of the nth substance listed, in mol/kg
Settings: 101 kPa, Liquid, dielectric constant meter

NCC(=O)O [2-aminoacetic acid] + O
relative permittivity at zero frequency
Settings | 278.15 K | 283.15 K | 288.15 K | 293.15 K | 298.15 K | 303.15 K | 308.15 K | 313.15 K
m1 = 0.1 | 88.4 | 86.4 | 84.5 | 82.6 | 80.7 | 78.8 | 76.9 | 75
m1 = 0.15 | 89.5 | 87.5 | 85.6 | 83.6 | 81.7 | 79.7 | 77.8 | 75.8
m1 = 0.2 | 90.6 | 88.6 | 86.6 | 84.6 | 82.6 | 80.6 | 78.5 | 76.4
m1 = 0.25 | 91.6 | 89.6 | 87.6 | 85.6 | 83.5 | 81.4 | 79.2 | 77
m1 = 0.3 | 92.8 | 90.7 | 88.7 | 86.5 | 84.3 | 82.1 | 79.7 | 77.2
